Values of other authors as cited in US20250352610A1, “NOVEL COMPOSITION” (Arecor Limited, priority 2022, published 2025).

Details: excipients of VancoReady; black box warning

Structure (SMILES): CC(=O)N[C@H](C)C(=O)O [N-acetyl-D-alanine]
- Fetal malformations in animal reproductive studies: cause fetal malformations
